According to US20200055848A1, “FURANONE DERIVATES AND METHODS OF USE THEREOF” (CARNA BIOSCIENCES, INC., priority 2016, published 2020):

Assays:
[1] = target: p70S6K (Homo sapiens, UniProt P23443); assay: Kinase selectivity IC50, p70S6K; format: biochemical
Experimental: (§1) To investigate the representative kinase selectivity of these compounds at physiological ATP levels, compound 13 was screened over a panel of 121 kinases in the presence of 1 mM ATP with preincubation method. […] IC50 values of hit kinases were determined to confirm the selectivity of compound 13.

[2] = target: Erk2 (Homo sapiens, UniProt P28482); assay: Kinase selectivity IC50, Erk2; format: biochemical
Experimental: as §1

[3] = target: GSK3α (Homo sapiens, UniProt P49840); assay: Kinase selectivity IC50, GSK3α; format: biochemical
Experimental: as §1

[4] = test system: cleaved PARP; assay: Western blotting of cleaved PARP in Colo-205 cells; format: cell-based, human; conditions: 48 h
Experimental: (§2) FIGS. 3A and 3B illustrate the effects of Cdc7 inhibition by compound 13 in Colo-205 cells. a) Western blot analysis of extracts prepared from Colo-205 cells at 48 h after treatment with DMSO control (0 μM) or compound 13 at indicated concentrations. b) […] analysis of Colo-205 cells treated for 48 h with DMSO control (0 μM) and the indicated concentration of compound 13. DNA content was measured by FACS after propidium iodide staining.
(§3) Human colon adenocarcinoma cell line Colo-205 was obtained from American Type Culture Collection (ATCC, Manassas Va.). Cells were grown in RPMI1640 supplemented with 10% FBS and 1% penicillin/streptomycin at 37° C., 5% CO2 and 95% humidity. Antibodies against Phospho-Histone H2A.X (Ser139) (no. 2577), Cleaved PARP (Asp214) (no. 9541) and MCM2 (no. 3619) were obtained from Cell signaling Technology. […]
(§4) Cells were seeded in T75 flasks (cell density, 2.25×10^6 cells/13.5 mL) and then incubated at 37° C. overnight. […] After washing with cold D-PBS, cells were scraped and lysed using a lysis buffer [RIPA Buffer (×1) containing 1% Phosphatase inhibitor Cocktail 3, 1% Phosphatase inhibitor Cocktail, and 1 mM phenylmethylsulfonyl fluoride], and the obtained samples were analyzed by western blotting. […] Each band was detected by chemiluminescence using a CCD camera (ImageQuant LAS 500, GE healthcare Ltd.).

[5] = test system: panel of 121 kinases; assay: Kinase selectivity screen over a panel of 121 kinases; format: biochemical; conditions: 1 mM ATP with preincubation
Experimental: as §1

[6] = test system: phospho-H2AX (γ-H2AX); assay: Western blotting of phospho-H2AX in Colo-205 cells; format: cell-based, human; conditions: 48 h
Experimental: as §2, §3, §4

[7] = test system: phosphorylation of MCM2 in Colo-205 cells; assay: Recovery of MCM2 phosphorylation after inhibitor washout; format: cell-based, human; conditions: Colo-205 cells treated 48 hours, then compound-free media
Experimental: Colo-205 cells were treated with or without compounds for 48 h. After inhibitor washout with compound-free media, the cells were lysed at the indicated time and subjected to western blot analysis.
Next, we investigated the recovery of substrate phosphorylation in cells after inhibitor washout to see whether the slow-off rate of inhibitor affects the recovery of phosphorylation. Colo-205 cells were treated for 48 hours with 13, and then, the inhibitor was washed out with compound-free media. The cells were lysed at the indicated time, and the phosphorylation status of MCM2 was analyzed by western blotting.

[8] = test system: HEL299; assay: Anti-proliferation activity in HEL299; format: cell-based; conditions: HEL 299; HEL299, derived from a human embryo lung tissue
[9] = In vitro metabolic stability, human liver microsomes; format: in vitro ADME
Experimental: NADPH regeneration system (13 mM NADP, 33 mM Glucose-6-phospate, 33 mM MgCl2, and 4 U/mL of Glucose-6-phosphate dehydrogenase) and liver microsomes (1 mg/mL of HLM (BD Gentest, lot 18888) or MLM (BD Gentest, lot 31197)) in 0.1 M phosphate buffer (pH 7.4) were pre-incubated separately at 37° C. for 20 min before mixing with 1:4 ratio. 50 μL of the mixed solution was added to 50 μL of the test compound (2 μM) to initiate the reaction at 37° C. (final conc. 1 μM test compound, 0.4 mg/mL liver microsomes, and 1.3 mM NADPH). After 30 min, the reactions were stopped by adding 300 μL of cold acetonitrile. For 0 min samples, ice-cold acetonitrile (with system suitability standard) was treated before mixing the test compound and microsomes. The sample were vortexed well and then centrifuged at 3500 rpm at 15° C. for 20 min. 110 μL of supernatant was mixed with 110 μL of water and quantitated by LC-MS/MS workstation (Shimazu Corp.).

[10] = target: Cdc7 (Homo sapiens, UniProt O00311); assay: Rapid dilution assay (dissociation rate from Cdc7); format: biochemical
Excerpt: FIG. 2 is a graph of the results obtained from the rapid dilution assay for Cdc7 inhibitors. Recovery of enzymatic activity was monitored by formation of the phosphorylated product. DMSO control (closed circle), compound 1 (open triangle), compound 13 (open square).
To better understand the observed time dependent inhibition of these compounds, compound 13 was subjected to the rapid dilution assay to study dissociation rate, and compared with compound 1. The inhibitor-enzyme mixture was rapidly diluted into the assay buffer containing the substrate and a high concentration of ATP, and then the phosphorylated product formation was monitored over 500 min of time course.

[11] = target: DYRK1B (Homo sapiens, UniProt Q9Y463); assay: Kinase selectivity IC50, DYRK1B; format: biochemical
Experimental: as §1

[12] = target: Erk1 (Homo sapiens, UniProt P27361); assay: Kinase selectivity IC50, Erk1; format: biochemical
Experimental: as §1

[13] = Half-life after intravenous administration in mice; conditions: mouse, in vivo
[14] = 1 mM ATP with preincubation, mean of duplicated assays

Sequence of Cdc7 (O00311 whole entry): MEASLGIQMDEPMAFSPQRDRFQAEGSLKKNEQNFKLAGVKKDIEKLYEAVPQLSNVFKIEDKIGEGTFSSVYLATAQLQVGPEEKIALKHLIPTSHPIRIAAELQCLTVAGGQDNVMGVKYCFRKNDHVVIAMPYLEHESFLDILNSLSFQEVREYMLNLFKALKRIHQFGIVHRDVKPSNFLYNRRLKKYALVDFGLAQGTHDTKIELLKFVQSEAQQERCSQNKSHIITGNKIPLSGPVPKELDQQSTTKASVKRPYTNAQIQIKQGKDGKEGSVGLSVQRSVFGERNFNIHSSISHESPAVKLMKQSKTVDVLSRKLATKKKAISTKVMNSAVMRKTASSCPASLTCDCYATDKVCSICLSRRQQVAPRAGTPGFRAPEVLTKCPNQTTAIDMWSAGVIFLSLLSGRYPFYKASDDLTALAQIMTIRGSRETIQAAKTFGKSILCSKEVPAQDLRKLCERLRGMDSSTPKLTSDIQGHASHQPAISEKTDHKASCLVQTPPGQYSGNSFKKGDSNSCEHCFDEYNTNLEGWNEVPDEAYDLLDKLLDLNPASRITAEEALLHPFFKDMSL
Sequence of Cdc7 (Q9UBU7 whole entry partner): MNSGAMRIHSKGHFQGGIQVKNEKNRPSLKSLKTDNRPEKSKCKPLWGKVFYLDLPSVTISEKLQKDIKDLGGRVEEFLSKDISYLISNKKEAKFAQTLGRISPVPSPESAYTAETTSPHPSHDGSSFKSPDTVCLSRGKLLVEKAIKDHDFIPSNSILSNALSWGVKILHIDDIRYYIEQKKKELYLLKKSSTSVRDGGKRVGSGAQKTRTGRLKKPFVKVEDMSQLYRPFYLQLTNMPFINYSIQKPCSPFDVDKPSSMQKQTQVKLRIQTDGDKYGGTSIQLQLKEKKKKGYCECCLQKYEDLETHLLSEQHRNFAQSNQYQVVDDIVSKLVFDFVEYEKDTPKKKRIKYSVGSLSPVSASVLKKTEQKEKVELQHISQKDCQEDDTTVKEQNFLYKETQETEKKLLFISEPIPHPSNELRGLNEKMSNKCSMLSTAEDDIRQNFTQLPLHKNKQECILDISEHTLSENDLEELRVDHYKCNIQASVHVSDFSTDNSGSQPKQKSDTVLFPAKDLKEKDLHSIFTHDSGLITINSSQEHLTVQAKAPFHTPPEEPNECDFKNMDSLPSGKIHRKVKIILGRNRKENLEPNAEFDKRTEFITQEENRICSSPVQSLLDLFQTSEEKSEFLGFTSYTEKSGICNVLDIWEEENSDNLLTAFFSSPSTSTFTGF
Sequence of DYRK1B (Q9Y463 whole entry): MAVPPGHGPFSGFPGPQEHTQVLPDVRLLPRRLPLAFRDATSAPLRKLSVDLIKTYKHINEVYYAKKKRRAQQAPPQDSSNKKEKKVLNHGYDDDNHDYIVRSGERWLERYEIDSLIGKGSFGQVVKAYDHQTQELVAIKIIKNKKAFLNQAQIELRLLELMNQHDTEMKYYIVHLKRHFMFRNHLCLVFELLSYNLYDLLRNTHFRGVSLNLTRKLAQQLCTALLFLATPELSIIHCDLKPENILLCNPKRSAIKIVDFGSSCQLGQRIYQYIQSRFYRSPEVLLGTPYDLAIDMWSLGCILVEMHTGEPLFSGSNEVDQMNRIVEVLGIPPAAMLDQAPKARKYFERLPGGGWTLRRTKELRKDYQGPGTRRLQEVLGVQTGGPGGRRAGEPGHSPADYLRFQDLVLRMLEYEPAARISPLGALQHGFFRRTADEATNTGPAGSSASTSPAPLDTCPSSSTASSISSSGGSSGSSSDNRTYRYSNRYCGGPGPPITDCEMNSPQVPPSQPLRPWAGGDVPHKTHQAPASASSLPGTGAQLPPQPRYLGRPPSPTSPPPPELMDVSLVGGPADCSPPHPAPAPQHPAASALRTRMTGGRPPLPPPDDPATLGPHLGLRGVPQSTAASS
Sequence of Erk1 (P27361 whole entry): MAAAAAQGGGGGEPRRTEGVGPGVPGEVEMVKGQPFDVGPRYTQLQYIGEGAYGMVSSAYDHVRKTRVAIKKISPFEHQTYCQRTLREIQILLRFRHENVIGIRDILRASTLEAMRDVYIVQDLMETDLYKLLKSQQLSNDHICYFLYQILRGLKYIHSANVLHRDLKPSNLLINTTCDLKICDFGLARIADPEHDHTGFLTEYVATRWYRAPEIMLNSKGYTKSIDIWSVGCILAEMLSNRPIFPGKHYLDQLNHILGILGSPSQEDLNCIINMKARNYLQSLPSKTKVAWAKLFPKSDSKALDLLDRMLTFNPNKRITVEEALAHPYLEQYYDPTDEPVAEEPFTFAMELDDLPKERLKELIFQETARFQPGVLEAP
Sequence of GSK3α (P49840 whole entry): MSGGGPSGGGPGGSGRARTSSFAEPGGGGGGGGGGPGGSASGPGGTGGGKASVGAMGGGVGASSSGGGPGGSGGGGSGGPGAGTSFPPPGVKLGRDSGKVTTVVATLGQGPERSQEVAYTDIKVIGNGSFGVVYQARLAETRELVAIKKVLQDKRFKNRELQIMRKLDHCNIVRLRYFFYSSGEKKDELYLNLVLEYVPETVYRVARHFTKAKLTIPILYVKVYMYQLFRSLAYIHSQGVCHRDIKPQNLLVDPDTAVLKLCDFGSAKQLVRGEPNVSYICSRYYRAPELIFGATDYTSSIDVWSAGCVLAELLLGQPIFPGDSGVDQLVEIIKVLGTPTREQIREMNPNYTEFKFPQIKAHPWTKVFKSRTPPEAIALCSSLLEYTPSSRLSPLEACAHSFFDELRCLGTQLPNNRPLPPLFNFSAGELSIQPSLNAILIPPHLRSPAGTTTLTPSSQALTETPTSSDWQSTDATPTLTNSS
Sequence of Erk2 (P28482 whole entry): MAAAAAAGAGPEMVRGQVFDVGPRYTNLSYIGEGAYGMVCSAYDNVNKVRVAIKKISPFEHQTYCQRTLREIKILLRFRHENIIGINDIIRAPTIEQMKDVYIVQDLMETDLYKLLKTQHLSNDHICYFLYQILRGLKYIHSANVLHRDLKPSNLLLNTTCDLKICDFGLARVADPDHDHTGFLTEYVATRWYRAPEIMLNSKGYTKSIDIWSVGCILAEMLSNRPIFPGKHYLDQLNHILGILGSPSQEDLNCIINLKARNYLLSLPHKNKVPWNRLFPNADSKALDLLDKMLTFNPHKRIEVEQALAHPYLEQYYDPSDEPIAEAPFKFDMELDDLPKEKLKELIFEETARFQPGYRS
Sequence of p70S6K (P23443 whole entry): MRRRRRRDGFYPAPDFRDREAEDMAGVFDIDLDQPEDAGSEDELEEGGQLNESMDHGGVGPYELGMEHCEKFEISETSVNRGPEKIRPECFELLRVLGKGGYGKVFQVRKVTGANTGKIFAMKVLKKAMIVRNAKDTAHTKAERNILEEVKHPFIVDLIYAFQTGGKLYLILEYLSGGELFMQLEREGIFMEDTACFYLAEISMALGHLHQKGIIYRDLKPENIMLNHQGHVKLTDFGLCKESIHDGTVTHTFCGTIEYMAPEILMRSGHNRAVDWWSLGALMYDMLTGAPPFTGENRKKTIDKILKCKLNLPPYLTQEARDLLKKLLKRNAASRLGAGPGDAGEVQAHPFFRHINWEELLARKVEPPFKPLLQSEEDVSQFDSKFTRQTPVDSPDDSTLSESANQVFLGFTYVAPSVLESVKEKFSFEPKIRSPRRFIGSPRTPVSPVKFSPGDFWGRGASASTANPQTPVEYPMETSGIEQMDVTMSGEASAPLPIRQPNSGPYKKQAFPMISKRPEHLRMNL

IC50 [1, 14]: 399 nM | Fold selectivity, p70S6K ([1]; IC50 versus Cdc7): 665 fold | IC50 [2, 14]: 61 nM | Fold selectivity, Erk2 ([2]; IC50 versus Cdc7): 102 fold | IC50 [3, 14]: 37 nM | Fold selectivity, GSK3α ([3]; IC50 versus Cdc7): 61 fold | selectivity in favor of Cdc7 over CLKs [5]: 8 fold | share of the kinase panel inhibited ([5]; >50% inhibition at 0.1 μM, 121 kinases): 7% | HLM % (remaining % of parent compound) ([9]; 30 min treatment of human liver microsomes): 67% | metabolic stability in human liver microsome (in words) ([9]; human): improved metabolic stabilities | phosphorylated product formation after rapid dilution ([10]; monitored over 500 min): much reduced rate | koff ([10]; rapid dilution, high concentration of ATP, read-out: off-rate from Cdc7 (koff) (converted)): 5.83e-05 s⁻¹ | residence time ([10]; rapid dilution, high concentration of ATP, read-out: t1/2 of dissociation from Cdc7): 197 min | IC50 [11, 14]: 53 nM | Fold selectivity, DYRK1B ([11]; IC50 versus Cdc7): 88 fold | IC50 [12, 14]: 278 nM | Fold selectivity, Erk1 ([12]; IC50 versus Cdc7): 463 fold | half-life [13]: 22.8 min
SMILES: CCOC(=O)C1=C(Nc2ccccc2Cl)OC(=Cc2c[nH]c3ncccc23)C1=O [Compound 13, Ethyl 5-((1H-pyrrolo[2,3-b]pyridin-3-yl)methylene)-2-((2-chlorophenyl)amino)-4-oxo-4,5-dihydrofuran-3-carboxylate]
cleaved PARP (apoptosis marker) [4]: Dose-dependent increases | DNA double strand breaks (phospho-H2AX, γ-H2AX) [6]: DNA strand breakages were observed | phosphorylation of MCM2 after inhibitor washout [7]: inhibited even 24 hours after washout | IC50 [8]: 1200 nM
